Results as given in patent US6720346B2, “Thiazole benzamide derivatives and pharmaceutical compositions for inhibiting cell proliferation” (Agouron Pharmaceuticals, Inc., priority 2001, dated 2004).

Columns and labels:
HCT-116 cell line = assay: Inhibition of cell growth, MTT tetrazolium salt assay; format: cell-based; settings: HCT-116 cells; for HCT-116 % Inhibition at 0.1 μM: 0.1 μM compound; for HCT-116 % Inhibition at 0.25 μM: 0.25 μM compound
Procedure, shortened: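 HCT-116 cells in McCoy's 5A were dosed 4 h after plating with compounds in 0.5% DMSO and grown 3–5 days at 37 °C. Then 0.2 mg/mL MTT was added for 4 h and formazan absorbance read at 540 nm. IC50/IC90 came from semi-log plots against DMSO-only controls.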

CDK2/cyclin A = target: T1, CDK2/cyclin A (Homo sapiens, UniProt P24941); assay: Inhibition of CDK2/cyclin A retinoblastoma kinase activity (Ki; % inhibition); format: biochemical; settings: 0.03 μM compound
T1 construct: made in house; host or cells: CDK2: insect cells (baculovirus); cyclin A: E. coli
Procedure, shortened: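 Apparent Ki values came from fitting concentration-dependent activity data to competitive (or competitive tight-binding) models, and % inhibition from single 30 nM screens of library compounds. Activity was measured as ³²P/³³P incorporation from 25 μM ATP into an Rb substrate by 10 or 19 nM CDK2/delta cyclin A at 30 °C over 60–75 min, pH 7.4.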

human CDK4/cyclin D3 = target: T2, human CDK4/cyclin D3 (Homo sapiens, UniProt P11802); assay: Inhibition of CDK4/cyclin D retinoblastoma kinase activity (Ki; % inhibition); format: biochemical; settings: 0.03 μM compound
T2 construct: made in house; host or cells: insect cells co-infected with baculovirus vectors
T2 sequence (P11802 whole entry): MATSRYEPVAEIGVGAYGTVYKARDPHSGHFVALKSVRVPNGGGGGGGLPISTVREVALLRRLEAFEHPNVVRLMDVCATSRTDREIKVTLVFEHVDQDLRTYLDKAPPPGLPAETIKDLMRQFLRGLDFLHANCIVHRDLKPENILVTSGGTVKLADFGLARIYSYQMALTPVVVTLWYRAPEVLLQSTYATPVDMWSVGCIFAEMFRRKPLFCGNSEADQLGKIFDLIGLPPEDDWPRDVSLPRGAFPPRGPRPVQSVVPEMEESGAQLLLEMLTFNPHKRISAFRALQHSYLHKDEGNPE
T2 sequence (P30281 1-264 partner limits assumed): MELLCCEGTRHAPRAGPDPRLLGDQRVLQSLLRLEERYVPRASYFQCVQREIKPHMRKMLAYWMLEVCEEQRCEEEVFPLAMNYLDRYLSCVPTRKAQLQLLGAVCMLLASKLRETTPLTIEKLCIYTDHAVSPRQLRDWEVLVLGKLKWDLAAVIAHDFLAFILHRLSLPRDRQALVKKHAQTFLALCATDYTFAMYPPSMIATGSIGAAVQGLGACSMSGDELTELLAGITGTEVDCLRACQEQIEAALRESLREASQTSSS
Procedure, shortened: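 Radiometric filter-binding read-out: Rb residues 386-928 phosphorylated by 5 nM CDK4/cyclin D3(1-264) from baculovirus-infected insect cells, 25 μM ATP, HEPES pH 7.4, 30 °C. Run 20 min, or 60 min for tight-binding inhibitors. Screening at 30 nM theoretical compound; apparent Ki by competitive-inhibition fitting.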

SMILES	HCT-116 % Inhibition at 0.1 μM (HCT-116 cell line) [%]	HCT-116 % Inhibition at 0.25 μM (HCT-116 cell line) [%]	CDK2 % Inhibition at 0.03 μM (CDK2/cyclin A) [%]	CDK4 % Inhibition at 0.03 μM (human CDK4/cyclin D3) [%]	HCT-116 % Inhibition at 0.1 μM (HCT-116 cell line; 0.1 µM) [%]	HCT-116 % Inhibition at 0.25 μM (HCT-116 cell line; 0.25 µM) [%]	CDK2 % Inhibition at 0.03 μM (CDK2/cyclin A; 0.03 µM) [%]	CDK4 % Inhibition at 0.03 μM (human CDK4/cyclin D3; 0.03 µM) [%]
COc1cc(NC(=O)c2ccc(Nc3nc(N)c(C(=O)c4c(F)cccc4F)s3)cc2)cc(OC)c1OC [Example G295]	10	78	8	22				
CN(CCC#N)C(=O)c1ccc(Nc2nc(N)c(C(=O)c3c(F)cccc3F)s2)cc1 [Example G296]	0	43	0	22				
Cc1cc(C)cc(NC(=O)c2ccc(Nc3nc(N)c(C(=O)c4c(F)cccc4F)s3)cc2)c1 [Example G297]	0	45	−3	8				
CCN(CC)CCN(C)C(=O)c1ccc(Nc2nc(N)c(C(=O)c3c(F)cccc3F)s2)cc1 [Example G298]	0	46	−9	30				
CCC(C)CN(CCO)C(=O)c1ccc(Nc2nc(N)c(C(=O)c3c(F)cccc3F)s2)cc1 (stereo not shown) [Example G299]	10	49	−11	−7				
CC(NC(=O)c1ccc(Nc2nc(N)c(C(=O)c3c(F)cccc3F)s2)cc1)C1CCCCC1 (stereo not shown) [Example G300]					18	70	−18	−10
Nc1nc(Nc2ccc(C(=O)NCc3ccc(F)cc3F)cc2)sc1C(=O)c1c(F)cccc1F [Example G301]	18	79	13	25				
Nc1nc(Nc2ccc(C(=O)NCc3ccc(F)c(C(F)(F)F)c3)cc2)sc1C(=O)c1c(F)cccc1F [Example G302]	17	63	17	29				
CC1CCCCN1CCCNC(=O)c1ccc(Nc2nc(N)c(C(=O)c3c(F)cccc3F)s2)cc1 (stereo not shown) [Example G303]	18	72	2	45				
N#CCCN(Cc1ccccc1)C(=O)c1ccc(Nc2nc(N)c(C(=O)c3c(F)cccc3F)s2)cc1 [Example G304]	15	54	0	20				
Nc1nc(Nc2ccc(C(=O)Nc3ccc(Nc4ccccc4)cc3)cc2)sc1C(=O)c1c(F)cccc1F [Example G305]	29	81	−6	11				
CCCCN(Cc1ccccc1)C(=O)c1ccc(Nc2nc(N)c(C(=O)c3c(F)cccc3F)s2)cc1 [Example G306]	9	44	−17	0				
CN(Cc1ccco1)C(=O)c1ccc(Nc2nc(N)c(C(=O)c3c(F)cccc3F)s2)cc1 [Example G307]	8	54	−3	12				
Cc1cccc(N2CCN(C(=O)c3ccc(Nc4nc(N)c(C(=O)c5c(F)cccc5F)s4)cc3)CC2C)c1 (stereo not shown) [Example G308]	5	60	−23	5				
Nc1nc(Nc2ccc(C(=O)NCc3cc(F)ccc3F)cc2)sc1C(=O)c1c(F)cccc1F [Example G309]	5	65	17	30				
CC(=O)c1ccc(NC(=O)c2ccc(Nc3nc(N)c(C(=O)c4c(F)cccc4F)s3)cc2)cc1 [Example G310]	14	53	−5	10				
Nc1nc(Nc2ccc(C(=O)N3CCN(c4ccncc4)CC3)cc2)sc1C(=O)c1c(F)cccc1F [Example G311]	5	43	−1	46				
CCN(C(=O)c1ccc(Nc2nc(N)c(C(=O)c3c(F)cccc3F)s2)cc1)C1CCCCC1 [Example G312]	8	58	−10	5				
CCOc1ccc(NC(=O)c2ccc(Nc3nc(N)c(C(=O)c4c(F)cccc4F)s3)cc2)cc1 [Example G313]	10	57	11	12				
CCCCN(CCCC)C(=O)c1ccc(Nc2nc(N)c(C(=O)c3c(F)cccc3F)s2)cc1 [Example G314]	9	47	−7	0				
Cc1cccc(CN(C)C(=O)c2ccc(Nc3nc(N)c(C(=O)c4c(F)cccc4F)s3)cc2)n1 [Example G315]	7	50	−1	11				
N#CCCN(Cc1cccnc1)C(=O)c1ccc(Nc2nc(N)c(C(=O)c3c(F)cccc3F)s2)cc1 [Example G316]	1	56	−2	11				
Nc1nc(Nc2ccc(C(=O)NCc3ccc(F)c(F)c3)cc2)sc1C(=O)c1c(F)cccc1F [Example G317]	27	87	27	33				
Nc1nc(Nc2ccc(C(=O)N[C@H](CO)Cc3ccccc3)cc2)sc1C(=O)c1c(F)cccc1F [Example G318]	16	48	−14	1				
COc1ccc(OC)c(CCNC(=O)c2ccc(Nc3nc(N)c(C(=O)c4c(F)cccc4F)s3)cc2)c1 [Example G319]	17	54	−5	14				
C=CCN(C(=O)c1ccc(Nc2nc(N)c(C(=O)c3c(F)cccc3F)s2)cc1)C1CCCCC1 [Example G320]	12	46	−15	5				
N#CCc1ccc(NC(=O)c2ccc(Nc3nc(N)c(C(=O)c4c(F)cccc4F)s3)cc2)cc1 [Example G321]	11	51	1	19				
CCCN(CCc1ccccn1)C(=O)c1ccc(Nc2nc(N)c(C(=O)c3c(F)cccc3F)s2)cc1 [Example G322]	13	50	−12	4				
